Reference: patent publication US20090209536A1, “AMINOQUINAZOLINE CANNABINOID RECEPTOR MODULATORS FOR TREATMENT OF DISEASE” (KALYPSYS, INC., priority 2007, published 2009)
pEC50: −log10 of the molar value. Read-outs that look alike come from different tables or passages of the source.

Legend:
[1] = biological target: T1, human cannabinoid receptor type 2 (Homo sapiens, UniProt P34972); assay: Human CB2 Radioligand Binding Assay; conditions: membranes from stably transfected CHO CB2 cells
T1 construct: expressed in transfected cells; membrane preparation
T1 sequence (P34972 whole entry): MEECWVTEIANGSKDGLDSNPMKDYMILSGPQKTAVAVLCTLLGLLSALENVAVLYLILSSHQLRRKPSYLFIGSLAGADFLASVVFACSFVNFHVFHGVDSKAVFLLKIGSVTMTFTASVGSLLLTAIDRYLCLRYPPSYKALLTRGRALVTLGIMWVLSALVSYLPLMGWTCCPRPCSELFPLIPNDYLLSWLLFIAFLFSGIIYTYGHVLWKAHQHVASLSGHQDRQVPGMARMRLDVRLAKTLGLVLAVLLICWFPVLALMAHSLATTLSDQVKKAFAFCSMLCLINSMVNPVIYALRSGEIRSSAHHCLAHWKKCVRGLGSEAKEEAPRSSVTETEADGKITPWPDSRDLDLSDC
How it was run: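 Test compounds (10 uM final, or dose-response) competed with [3H]CP-55,940, used at the Kd determined per membrane lot, for binding to stable human CB2-CHO membranes over 90 min at 30° C in pH 7.4 Tris/EGTA/MgCl2/BSA buffer. GF/C filtration then scintillation counting; 100 nM CP-55,940 defined 100% efficacy.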

[2] = biological target: T2, human cannabinoid receptor type 1 (Homo sapiens, UniProt P21554); assay: Human CB1 Radioligand Binding Assay (basis of selectivity, CB2 vs. CB1); conditions: CB1: HEK 293 EBNA cells expressing human CB1; CB2: CHO CB2 membranes
T2 construct: purchased Perkin Elmer RBHCB1M; host or cells: HEK 293 EBNA cells
T2 sequence (P21554 whole entry): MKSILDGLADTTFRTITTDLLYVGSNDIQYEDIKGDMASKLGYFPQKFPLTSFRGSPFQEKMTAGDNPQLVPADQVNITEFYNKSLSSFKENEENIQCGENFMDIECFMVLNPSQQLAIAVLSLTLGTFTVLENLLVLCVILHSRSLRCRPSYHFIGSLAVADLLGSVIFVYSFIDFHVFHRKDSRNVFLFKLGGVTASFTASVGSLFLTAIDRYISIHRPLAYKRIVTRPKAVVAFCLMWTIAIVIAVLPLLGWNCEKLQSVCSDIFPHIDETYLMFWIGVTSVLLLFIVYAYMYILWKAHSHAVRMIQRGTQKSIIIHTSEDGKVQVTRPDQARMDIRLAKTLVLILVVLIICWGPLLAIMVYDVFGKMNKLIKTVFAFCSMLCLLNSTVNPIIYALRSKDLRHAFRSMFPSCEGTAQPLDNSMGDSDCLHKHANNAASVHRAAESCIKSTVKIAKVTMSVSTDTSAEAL
Protocol: 2. Human CB1 Radioligand Binding Assay
The incubation buffer was composed of 50 mM Tris-HCl pH 7.4, 2.5 mM EDTA, 5 mM MgCl2, 5.0 mg/ml fatty acid free BSA and the wash buffer was composed of 50 mM Tris-HCl pH 7.4, 2.5 mM EDTA, 5 mM MgCl2, 0.5 mg/ml fatty acid free BSA.

[3] = competition with [3H] CP-55,940, read-out: CB2 Ligand Binding Asssay EC50

SMILES | pEC50 [1, 3] | Selectivity, CB2 vs. CB1 [2] | pEC50 ([1]; CB2 Ligand Binding Asssay EC50, competition with [3H] CP-55,940)
Clc1ccc(-c2nc(N3CCCCC3)c3ccccc3n2)c(Cl)c1 [Example 29, 2-(2,4-Dichlorophenyl)-4-piperidin-1-ylquinazoline] | > 6.00 | + (+ indicates > 10−fold) | 
Clc1ccccc1-c1nc(NCCc2ccccn2)c2ccccc2n1 [Example 191, 2-(2-Chlorophenyl)-N-(2-(pyridine-2-yl)ethyl)quinazolin-4-amine] | < 6.00 | − (− indicates ≦ 10−fold) | 
CCCOC(=O)N1CCN(c2nc(-c3ccccc3Cl)nc3ccccc23)CC1 [Example 94, Propyl 4-(2-(2-chlorophenyl)quinazolin-4-yl)piperazine-1-carboxylate] | < 6.00 | − (− indicates ≦ 10−fold) | 
CC(C)NC(=O)N1CCN(c2nc(-c3ccccc3Cl)nc3ccccc23)CC1 [Example 90, 4-(2-(2-Chlorophenyl)quinazolin-4-yl)-N-isopropylpiperazine-1-carboxamide] |  | − (− indicates ≦ 10−fold) | < 6.00
COC(=O)N1CCN(c2nc(-c3ccccc3Cl)nc3ccccc23)CC1 [Example 92, Methyl 4-(2-(2-Chlorophenyl)quinazolin-4-yl)piperazine-1-carboxylate] | < 6.00 | − (− indicates ≦ 10−fold) | 
CC(C)(C)c1ccc(-c2nc(Nc3ccc(F)cc3F)c3ccccc3n2)cc1 [Example 115, 2-(4-tert-Butylphenyl)-N-(2,4-difluorophenyl)quinazolin-4-amine] | < 6.00 | − (− indicates ≦ 10−fold) | 
CC(C)CNc1nc(-c2ccccc2)nc2ccccc12 [Example 51, N-iso-Butyl-2-phenylquinazolin-4-amine] | < 6.00 | − (− indicates ≦ 10−fold) | 
CC1CCCCN1c1nc(-c2ccc(Cl)cc2)nc2ccccc12 (stereo not drawn) [Example 124, 2-(4-Chlorophenyl)-4-(2-methylpiperidin-1-yl)quinazoline] | < 6.00 | − (− indicates ≦ 10−fold) | 
Clc1ccc(-c2nc(N3CCCC3)c3ccccc3n2)cc1 [Example 128, 2-(4-Chlorophenyl)-4-(pyrrolidin-1-yl)quinazoline] | > 6.00 | + (+ indicates > 10−fold) | 
CC(=O)N1CCN(c2nc(-c3cccc(F)c3)nc3ccccc23)CC1 [Example 154, 1-(4-(2-(3-Fluorophenyl)quinazolin-4-yl)piperazin-1-yl)ethanone] | > 6.00 | + (+ indicates > 10−fold) | 

Continued, in another order:

pEC50 [1, 3] | Selectivity, CB2 vs. CB1 [2] | SMILES | pEC50 ([1]; CB2 Ligand Binding Asssay EC50, competition with [3H] CP-55,940)
> 6.00 | − (− indicates ≦ 10−fold) | CC(=O)N1CCN(c2nc(-c3ccccc3Cl)nc3ccc(F)cc23)CC1 [Example 268, 1-(4-(2-(2-Chlorophenyl)-6-fluoroquinazolin-4-yl)piperazin-1-yl)ethanone] | 
> 6.00 | − (− indicates ≦ 10−fold) | Clc1ccccc1-c1nc(N2CCCC2)c2cccc(Cl)c2n1 [Example 227, 8-Chloro-2-(2-chlorophenyl)-4-(pyrrolidin-1-yl)quinazoline] | 
> 6.00 | + (+ indicates > 10−fold) | COc1cccc2nc(-c3ccccc3Cl)nc(N3CCN(C(C)=O)CC3)c12 [Example 243, 1-(4-(2-(2-Chlorophenyl)-5-methoxyquinazolin-4-yl)piperazin-1-yl)ethanone] | 
< 6.00 | − (− indicates ≦ 10−fold) | CC(=O)N1CCN(c2nc(-c3ccc(Cl)cc3)nc3ccc(Cl)cc23)CC1 [Example 253, 1-(4-(6-Chloro-2-(4-chlorophenyl)quinazolin-4-yl)piperazin-1-yl)ethanone] | 
< 6.00 | − (− indicates ≦ 10−fold) | O=S(=O)(NCc1nc(Nc2ccccc2)c2ccccc2n1)c1cccc2ccccc12 [Example 302, N-((4-(Phenylamino)quinazolin-2-yl)methyl)naphthalene-1-sulfonamide] | 
